The source of these data is US9296774B2, “Halogenated dideoxy sugar derivates, preparation method and application thereof” (Suzhou Harmony Biotechnology Co., Ltd., priority 2009, dated 2016).

Entries after “also recorded” stand apart in the source; their conditions may differ.

Data set [1] has as its system mouse. Kind of data set: Acute toxicity (LD50), mouse ip injection. The conditions noted are these: mouse ip after injection.
In data set [2] the test system is mouse. As to the kind of experiment: Acute toxicity (LD50), mouse ig.
Data set [3] can be described thus: in vivo. The conditions noted are these: mouse, ip.
The nature of data set [4]: in vivo. The conditions noted are these: mouse, po.
In data set [5] the test system is MGC human stomach cancer cells. As to the kind of experiment: Mouse transplant tumor, MGC human stomach cancer.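 For all read-outs here: control group received saline vehicle.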 The conditions noted are these: for inhibitive effect on mouse transplant tumor (in words): 125 mg/kg; for Inhibition of tumor growth / Weight of tumor / weight end / weight start: 125 mg/kg once a day for 7 days; for weight end: animal weight at end; for weight start: animal weight at start.
Description: Saline solution was used as a control. The positive group CTX was treated with the compounds at an amount of 0.4 ml/20 g. The compounds were applied once a day for consecutive 7 days. The animals were then compensated.

The test system of data set [6] is anaplastic thyroid carcinoma TA-K cells. Kind of data set: Mouse transplant tumor, human anaplastic thyroid carcinoma TA-K.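 For all read-outs here: Tumor-bearing mice compared against a saline-treated control group.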 The conditions noted are these: for inhibitive effect on mouse transplant tumor (in words): anaplastic thyroid carcinoma TA-K, 125 mg/kg; for Inhibition of tumor growth / Weight of tumor / weight end / weight start: human anaplastic thyroid carcinoma TA-K, 125 mg/kg once a day for 7 days; for weight end: animal weight at end; for weight start: animal weight at start.
Description: (§1) Saline solution was used as a control. The positive group CTX was treated with the compounds at an amount of 0.4 ml/20 g. The compounds were applied once a day for consecutive 7 days.

Data set [7] relates to AsPc human pancreatic cancer cells. Kind of data set: Mouse transplant tumor, AsPc human pancreatic cancer.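 For all read-outs here: Saline-treated mice served as the control group, with a CTX-treated group as positive reference.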 The conditions noted are these: for inhibitive effect on mouse transplant tumor (in words): 125 mg/kg; for Inhibition of tumor growth / Weight of tumor / weight end / weight start: 125 mg/kg once a day for 7 days; for weight end: animal weight at end; for weight start: animal weight at start.
Description: as §1

A further data set relates to B16 malignant melanoma. Kind of data set: Mouse transplant tumor, B16 malignant melanoma. The conditions noted are these: for Inhibition of tumor growth (%) / Weight of tumor / weight end / weight start: B16, 125 mg/kg once a day for 7 days; for weight end: body weight at end; for weight start: body weight at start; for inhibitive effect on mouse transplant tumor (in words): B16 malignant melanoma, 125 mg/kg.

The test system of the next data set is 05-732 human bone tumor. Kind of data set: Mouse transplant tumor, 05-732 human osteosarcoma. The conditions noted are these: for inhibitive effect on mouse transplant tumor (in words): 05-732 human bone tumor, 125 mg/kg; for Inhibtion of tumor growth / Weight of tumor / weight end / weight start: 05-732 human osteosarcoma, 125 mg/kg once a day for 7 days; for weight end: animal weight at end; for weight start: animal weight at start.

For data set [8], the system named is MX-1 human breast cancer cells. As to the kind of experiment: Mouse transplant tumor, MX-1 human breast cancer.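 For all read-outs here: mice given saline served as the control group.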 The conditions noted are these: for inhibitive effect on mouse transplant tumor (in words): 125 mg/kg; for Inhibition of tumor growth / Weight of tumor / weight end / weight start: 125 mg/kg once a day for 7 days; for weight end: animal weight at end; for weight start: animal weight at start.
Description: as §1

Description for 05-732 human bone tumor: as §1
Description for B16 malignant melanoma: as §1

As usually defined, the LD50 is the dose at which mortality reaches 50%. Lower therefore signals a more toxic substance. For the molecule `CC(=O)OCC1OC(Br)C(Br)CC1OC(C)=O` (single isomer, unassigned) [Compound 4], the LD50 in the data set on mouse [1] is listed as 356.2 mg/kg; in the data set with mouse [2] it was 2389.2 mg/kg.
The like results for `CC(=O)OCC1OC(OP(=O)(NCCCl)NCCCl)C(Br)CC1OC(C)=O` (single isomer, unassigned) [Compound 8] were, in that order, 301.4 mg/kg and 2017.5 mg/kg.
Regarding `CC(=O)OCC1OC(OP(=O)(O)N(CCCl)CCCl)CC(Br)C1OC(C)=O` (stereo not drawn) [Compound 9], the figures for the LD50 in the data set “in vivo [3]” and in “in vivo [4]” were 307 mg/kg and 2140 mg/kg, respectively.
Take `CC(=O)OCC1OC(OP(=O)(NCCCl)NCCCl)CC(Br)C1OC(C)=O` (single isomer, unassigned) [Compound 5]: in data set [5], the “inhibitive effect on mouse transplant tumor (in words)” value (“inhibitive effect” for short) is “good inhibitive effect; also recorded: significant effect”, the “Inhibition of tumor growth” value stood at 75.7, the Weight of tumor came to 0.6 and the weight end stood at 18.6. In data set [5], this molecule displayed a weight start of 18.3. In “in vivo [3]”, this molecule yielded a median lethal dose (LD50) of 301 mg/kg. The LD50 in “in vivo [4]” is 2120 mg/kg. For the same molecule, in [6], the “inhibitive effect” value is “good inhibitive effect; also recorded: significant effect”, the “Inhibition of tumor growth” value is reported as 76.6, the Weight of tumor was found to be 0.6 and the weight end came out at 18.6. In data set [6], this molecule had a weight start of 18.3. Moreover, in [7], the “inhibitive effect” value is reported as “good inhibitive effect; also recorded: significant effect”, the “Inhibition of tumor growth” value is recorded as 81.5, the Weight of tumor is 0.4 and the weight end came out at 18.6. The weight start in data set [7] is given as 18.3. For the same molecule, in the data set with B16 malignant melanoma, the “Inhibition of tumor growth (%)” value is 76.4%, the Weight of tumor was determined as 0.6, the weight end is 18.6 and the weight start was 18.3. Further, the “inhibitive effect” value in the data set with B16 malignant melanoma was “good inhibitive effect; also recorded: significant effect”. Besides, in the data set with 05-732 human bone tumor, the “inhibitive effect” value was “good inhibitive effect; also recorded: significant effect”, the “Inhibtion of tumor growth” value was found to be 74.9, the Weight of tumor worked out at 0.7 and the weight end came to 18.6. In addition, the weight start in the data set with 05-732 human bone tumor is reported as 18.3. In data set [8], the “inhibitive effect” value is given as “good inhibitive effect; also recorded: significant effect”, the “Inhibition of tumor growth” value is reported as 83.6, the Weight of tumor was determined as 0.4 and the weight end is 18.6. Moreover, the weight start in data set [8] is 18.3.
As for `CC(=O)OCC1OC(OP(=O)(NCCCl)NCCCl)C(Br)CC1OC(C)=O` (single isomer, unassigned) [Compound 7], the “inhibitive effect” value (in data set [5]; in [6]; in [7]; with B16 malignant melanoma; in the data set with 05-732 human bone tumor; in data set [8]) was “good inhibitive effect; also recorded: significant effect” each time. The “Inhibition of tumor growth” value in data set [5] turned out to be 83.8; in data set [6], 84.2; in data set [7], 73.6; in data set [8], 80.8. Besides, the Weight of tumor is on record as 0.4 in data set [5]; 0.4 in data set [6]; 0.6 in data set [7]; 0.5 with B16 malignant melanoma; 0.5 with 05-732 human bone tumor; 0.5 in data set [8]. Moreover, the weight end (in [5]; in [6]; in data set [7]; in the data set on B16 malignant melanoma; with 05-732 human bone tumor; in [8]) was 18.4 each time. Besides, the weight start (in [5]; in [6]; in [7]; in the data set on B16 malignant melanoma; with 05-732 human bone tumor; in [8]) was 18.3 in each case. The LD50 in the data set “in vivo [3]” was 316 mg/kg; in the data set “in vivo [4]”, 2220 mg/kg. For the same molecule, the “Inhibition of tumor growth (%)” value with B16 malignant melanoma came out at 80.4%. Moreover, the “Inhibtion of tumor growth” value in the data set with 05-732 human bone tumor was found to be 81.3.
As to `COc1cc(C2c3cc4c(cc3C(C3CC(Br)C(OC(C)=O)C(COC(C)=O)O3)C3COC(=O)C23)OCO4)cc(OC)c1O` (stereo not drawn) [Compound 13], the “inhibitive effect” value (in [5]; in data set [6]; in data set [7]; in the data set on B16 malignant melanoma; in the data set on 05-732 human bone tumor; in [8]) was “good inhibitive effect” throughout. Besides, the LD50 came out at 299 mg/kg in the data set “in vivo [3]” and 1830 mg/kg in the data set “in vivo [4]”.
For `CC(=O)OCC1OC(OP(=O)(O)N(CCCl)CCCl)C(Br)CC1OC(C)=O` (stereo not drawn) [Compound 11], the LD50 in “in vivo [3]” turned out to be 323 mg/kg; in the data set “in vivo [4]” it was 2030 mg/kg.
As to `CC(=O)OCC1OC(Br)C(Br)CC1OC(C)=O` (single isomer, unassigned) [Compound 3], in data set [5], the “inhibitive effect” value was “good inhibitive effect; also recorded: significant effect”, the “Inhibition of tumor growth” value turned out to be 72.5, the Weight of tumor came out at 0.7 and the weight end was 18.3. In addition, the weight start in [5] is listed as 18.2. Also, the LD50 in the data set “in vivo [3]” was 359 mg/kg. Also, the LD50 in the data set “in vivo [4]” is 2320 mg/kg. For the same molecule, in data set [6], the “inhibitive effect” value is “good inhibitive effect; also recorded: significant effect”, the “Inhibition of tumor growth” value worked out at 73.2, the Weight of tumor came out at 0.7 and the weight end was determined as 18.3. The same molecule showed a weight start in [6] of 18.2. Besides, in data set [7], the “inhibitive effect” value was “good inhibitive effect; also recorded: significant effect”, the “Inhibition of tumor growth” value worked out at 77.3, the Weight of tumor stood at 0.5 and the weight end is given as 18.3. For the same molecule, the weight start in data set [7] stood at 18.2. Moreover, in the data set on B16 malignant melanoma, the “Inhibition of tumor growth (%)” value was found to be 76.8%, the Weight of tumor was 0.6, the weight end is reported as 18.3 and the weight start amounted to 18.2. Besides, the “inhibitive effect” value in the data set on B16 malignant melanoma is reported as “good inhibitive effect; also recorded: significant effect”. In the data set with 05-732 human bone tumor, the “inhibitive effect” value is listed as “good inhibitive effect; also recorded: significant effect”, the “Inhibtion of tumor growth” value is listed as 71.5, the Weight of tumor turned out to be 0.8 and the weight end worked out at 18.3. In the data set on 05-732 human bone tumor, this molecule returned a weight start of 18.2. In data set [8], the “inhibitive effect” value was “good inhibitive effect; also recorded: significant effect”, the “Inhibition of tumor growth” value was 75.8, the Weight of tumor stood at 0.6 and the weight end came to 18.3. This molecule also gave a weight start in data set [8] of 18.2.
On to `COc1cc(C2c3cc4c(cc3C(C3OC(COC(C)=O)C(OC(C)=O)CC3Br)C3COC(=O)C23)OCO4)cc(OC)c1O` (stereo not drawn) [Compound 14], for which the “inhibitive effect” value (in data set [5]; in data set [6]; in data set [7]; in the data set with B16 malignant melanoma; in the data set with 05-732 human bone tumor; in data set [8]) was “good inhibitive effect; also recorded: significant effect” throughout. Moreover, the “Inhibition of tumor growth” value in data set [5] is 71.9; in data set [6], 76.2; in data set [7] it was 75.2; in [8], 76.3. The Weight of tumor is listed as 0.7 in data set [5]; 0.6 in data set [6]; 0.3 in [7]; 0.6 in the data set on B16 malignant melanoma; 0.8 with 05-732 human bone tumor; 0.6 in [8]. For the same molecule, the median lethal dose (LD50) in “in vivo [3]” worked out at 300 mg/kg; in the data set “in vivo [4]” it was 1970 mg/kg. For the same molecule, the “Inhibition of tumor growth (%)” value in the data set with B16 malignant melanoma was found to be 76.2%. Moreover, the “Inhibtion of tumor growth” value in the data set on 05-732 human bone tumor came to 72.3.
